# According to patent publication US4983636A, “Composition and method of treating selected malignant conditions” (Rikagaku Kenkyusho Wako, priority 1976, dated 1991):
# Values joined by “and” are separate entries in the source; they are usually repeats but may differ in a detail not shown here. Identical values can stand only once. “Also recorded” adds a separate entry of the source.
# How the values were obtained:
# E. coli W3110 = assay: uptake of 14C-substrate (thymine, adenine, glutamic acid, alanine) by E. coli W3110; settings: for adenine incorporation / alanine incorporation / glutamic acid incorporation / thymine incorporation: E. coli W3110
# Protocol: (§1) In the Table, "glucose" was added as an energy source for cells in which propagation had been terminated and "CM" (Chloramphenicol) was added so as to terminate propagation of cells. […] Separately, instead of this composition of the foregoing additives, a composition comprising glucose, CM, 14C-substrate and colistin was added and cells were similarly obtained. The colistin was added for a comparison system to the Ba-added system because colistin is a permeation inhibitor for cell membranes (antibiotic substance).
# (§2) In Table 2, the value of each numerator means a value measured by a scintillation counter and the value of each denominator means a ratio (%) to the value of the control (100%).
# E. coli S = assay: uptake of 14C-substrate (tryptophane) by E. coli S; settings: for tryptophane incorporation: E. coli S
# Protocol: as §1, §2
# Escherichia coli [1] = assay: influence on uptake of amino acids and nucleic acid bases by Escherichia coli (incl. time course, FIGS. 1 and 2); settings: in words
# Protocol: as §1
# Escherichia coli [2] = assay: outflow of incorporated substrates from Escherichia coli cells (FIG. 3); settings: FIG. 3, in words
# Adeno-carcinoma 755 [3] = assay: Test 1: tumor weight, subcutaneously implanted Adeno-carcinoma 755; format: in vivo, mice (first filial generation of C57BL/6 and DBA/2); settings: 11th day
# Protocol: (§3) As the experimental animal, there were used four mice of the first filial generation of C57BL/6 and DBA/2, which were 6 to 7 weeks old. A carcinoma (Adeno-carcinoma 755) was implanted on the hypoderm in the back by using an implanting needle. […] This treatment was conduced once a day for 9 days. On the 11th day from the implantation, the weight of the tumor was measured with respect to each group to obtain the results shown in Table 3.
# Adeno-carcinoma 755 [4] = assay: Test 2: tumor weight, Adeno-carcinoma 755, intraperitoneal benzaldehyde; format: in vivo, mice (first filial generation of C57BL/6 and DBA/2); settings: 11th day
# Protocol: as §3
# The treatment was continued for 9 days. On the 11th day from the implantation, the tumor weight was measured with respect to each group to obtain results shown in Table 4.
# Ehrlich carcinoma [5] = assay: Test 3: tumor weight, subcutaneously implanted Ehrlich carcinoma (solid tumor); format: in vivo, mice of RFVL
# Protocol: Ten mice of RFVL which were 4 to 5 weeks old were used as the experiemental animals, and about 10^6 cells/0.2 ml of Ehrlich carcinoma were implanted subcutaneously at the right armpit. […] This treatment was continued for 9 days. On the 11th day from the tumor implantation, the tumor weight was measured with respect to each group to obtain results shown in Table 5. In each of control and treated groups, the increase of the body weight in the tested mice during the test was 3.5 g as the average value determined on 10 mice.
# Ehrlich carcinoma [6] = assay: Test 4: survival effect, intraperitoneally implanted Ehrlich carcinoma (FIG. 4); format: in vivo, mice of RFVL; settings: 10 days
# Protocol: Ten mice of RFVL which were 4 to 5 weeks old were used as the test animals and about 10^6 cells/0.2 ml of Ehrlich carcinoma were implanted intraperitoneally.
# In FIG. 4, the suspension was administered at doses of 25, 50 and 100 mg/Kg/day to treated groups and the 0.85% biological sodium chloride solution alone was administered to a control group. Parenthesized values shown for each group are average values of the number of living days and the survival ratio.
# [7] = continuous administration for 10 days, toxicity; format: in vivo
# From the text: (§4) In general, Ehrlich ascites tumor is highly sensitive to conventional carcinostatic agents of cytotoxic type, and Ehrlich solid tumor is relatively lowly sensitive to most of these known carcinostatic agents. […] Thus, the composition of the present invention is very unique in the point that it is efficacious against a broadrange of carcinomatous diseases.
# [8] = system: malignant cells of adenomatous carcinoma, squamous cell carninoma, sarcoma and the like, especially undifferentiated tumors; assay: clinical experiments, sensitivity of malignant cells; format: in vivo, human; settings: in words
# From the text: as §4
# [9] = excretion from the living body; format: in vivo; settings: in words
# lymphosarcoma = assay: effect against lymphosarcoma; settings: in words
# tumor cells of mice = assay: control of tumor cells of mice; settings: in words
compound,measurement,setting,value
O=Cc1ccccc1 [benzaldehyde],adenine incorporation,"E. coli W3110; adenine, benzaldehyde 10^-1 PPM",3135 CPM
same,adenine incorporation,"E. coli W3110; adenine, benzaldehyde 10^-2 PPM",3684 CPM
same,adenine incorporation,"E. coli W3110; adenine, benzaldehyde 10^-3 PPM",4246 CPM
same,alanine incorporation,"E. coli W3110; alanine, benzaldehyde 10^-1 PPM",5283 CPM
same,alanine incorporation,"E. coli W3110; alanine, benzaldehyde 10^-2 PPM",5438 CPM
same,alanine incorporation,"E. coli W3110; alanine, benzaldehyde 10^-3 PPM",5838 CPM
same,glutamic acid incorporation,"E. coli W3110; glutamic acid, benzaldehyde 10^-1 PPM",2842 CPM
same,glutamic acid incorporation,"E. coli W3110; glutamic acid, benzaldehyde 10^-2 PPM",2779 CPM
same,glutamic acid incorporation,"E. coli W3110; glutamic acid, benzaldehyde 10^-3 PPM",3203 CPM
same,thymine incorporation,"E. coli W3110; thymine, benzaldehyde 10^-1 PPM",1399 CPM
same,thymine incorporation,"E. coli W3110; thymine, benzaldehyde 10^-2 PPM",1566 CPM
same,thymine incorporation,"E. coli W3110; thymine, benzaldehyde 10^-3 PPM",1891 CPM
same,tryptophane incorporation,E. coli S; benzaldehyde 10^-1 PPM,1076 CPM
same,tryptophane incorporation,E. coli S; benzaldehyde 10^-2 PPM,915 CPM
same,tryptophane incorporation,E. coli S; benzaldehyde 10^-3 PPM,808 CPM
same,influence on uptake of nucleic acids and other amino acids,Escherichia coli [1]; substrates other than tryptophane,incorporation of nucleic acids and other amino acids is inhibited; also recorded: exerts an uptake inhibiting action in the case of other substrates
same,influence on uptake of tryptophane,Escherichia coli [1]; tryptophane,the incorporation is promoted; also recorded: the uptake of tryptophane increases with the lapse of time; also recorded: specifically promotes the uptake of tryptophane among substrates
same,damage to cell membranes,Escherichia coli [2],causes no damage to cell membranes
same,outflow of incorporated substrate,Escherichia coli [2],outflow of the substrate is remarkably reduced and is not changed from outflow of the substrate in the control system
same,Average Weight (tumor),"Adeno-carcinoma 755 [3]; 10 ppm suspension s.c. for 9 days, control 5.8 g",3.8 g
same,Tumor Weight,"Adeno-carcinoma 755 [3]; individual animal, 10 ppm suspension 0.5 to 1.0 ml s.c. once a day for 9 days",4.6 g and 2.6 g and 4.1 g
same,Average Weight (tumor),"Adeno-carcinoma 755 [4]; 3.5% suspension 0.1 ml i.p. for 9 days, control 5.90 g",3.55 g
same,Tumor Weight,"Adeno-carcinoma 755 [4]; individual animal, 3.5% suspension 0.1 ml i.p. once a day for 9 days",3.3 g and 3.4 g and 4.0 g and 3.5 g
same,increase of the body weight during the test (average),"Ehrlich carcinoma [5]; 10 mg/Kg i.p. for 9 days, 10 mice, same in control group",3.5 g
same,Average Weight (tumor),"Ehrlich carcinoma [5]; 10 mg/Kg i.p. for 9 days, 11th day, control 2.79 g",1.24 g
same,Tumor Weight,"Ehrlich carcinoma [5]; individual animal, 10 mg/Kg i.p. once a day for 9 days, 11th day, 10 mg/kg",3.8 g and 2.4 g and 2.2 g and 0.8 g and 0.6 g and 0.5 g and 0.4 g and 0.3 g
same,effect on Ehrlich solid tumor,"Ehrlich carcinoma [5]; solid versus ascites tumor, in words",acts strongly on the solid tumor rather than the ascites tumor; also recorded: prominent effect on Erlich solid tumor
same,survival effect,Ehrlich carcinoma [6]; 50 mg/Kg per day i.p.,15.4%
same,survival effect,Ehrlich carcinoma [6]; 100 mg/Kg per day i.p.,26.9%
same,daily dose without bad influences such as toxicity on the host,[7]; administered continuously for 10 days,up to 200 mg/Kg
same,NOAEL at 240 h,"[7]; in vivo, ip, continuous intraperitoneal injection for 10 days, read-out: daily dose at which no toxicity is observed",≥ 200 mg/kg/day
same,side effects,[7]; in words,causes no side effects
same,sensitivity of malignant cells,[8],highly sensitive to benzaldehyde
same,excretion from the living body,[9],promptly excreted from the living body; also recorded: promptly extracted from living bodies
same,effect against lymphosarcoma,lymphosarcoma,effective against lymphosarcoma
same,control of tumor cells of mice,tumor cells of mice,effective for controlling tumor cells of mice
colistin [reference compound],adenine incorporation,"E. coli W3110; adenine, colistin 5 PPM",1066 CPM
same,"adenine incorporation, ratio (%) to the control","E. coli W3110; adenine, colistin 5 PPM, control 100%",23%
same,alanine incorporation,"E. coli W3110; alanine, colistin 5 PPM",1009 CPM
same,"alanine incorporation, ratio (%) to the control","E. coli W3110; alanine, colistin 5 PPM, control 100%",17%
same,glutamic acid incorporation,"E. coli W3110; glutamic acid, colistin 5 PPM",670 CPM
same,"glutamic acid incorporation, ratio (%) to the control","E. coli W3110; glutamic acid, colistin 5 PPM, control 100%",16%
same,thymine incorporation,"E. coli W3110; thymine, colistin 5 PPM",333 CPM
same,"thymine incorporation, ratio (%) to the control","E. coli W3110; thymine, colistin 5 PPM, control 100%",16%
same,tryptophane incorporation,E. coli S; colistin 5 PPM,439 CPM
same,"tryptophane incorporation, ratio (%) to the control","E. coli S; colistin 5 PPM, control 100%",65%
same,damage to cell membranes,Escherichia coli [2],cell membranes are destroyed
same,outflow of incorporated substrate,Escherichia coli [2],outflow of the substrate is extreme
